In patent US20240228489A1, “POSITIVE ALLOSTERIC MODULATORS OF THE MUSCARINIC ACETYLCHOLINE RECEPTOR M1” (Vanderbilt University, priority 2021, published 2024):

Experiments:
human mAChR M1 [1] = target: T1, human mAChR M1 (Homo sapiens, UniProt P11229); assay: mAChR M1 cell-based functional assay (calcium mobilization), agonist mode: compound alone, Emax relative to acetylcholine maximum; settings: for Agonist Activity Human M1 EC50 / EC50: human mAChR M1
T1 sequence (P11229 1-460): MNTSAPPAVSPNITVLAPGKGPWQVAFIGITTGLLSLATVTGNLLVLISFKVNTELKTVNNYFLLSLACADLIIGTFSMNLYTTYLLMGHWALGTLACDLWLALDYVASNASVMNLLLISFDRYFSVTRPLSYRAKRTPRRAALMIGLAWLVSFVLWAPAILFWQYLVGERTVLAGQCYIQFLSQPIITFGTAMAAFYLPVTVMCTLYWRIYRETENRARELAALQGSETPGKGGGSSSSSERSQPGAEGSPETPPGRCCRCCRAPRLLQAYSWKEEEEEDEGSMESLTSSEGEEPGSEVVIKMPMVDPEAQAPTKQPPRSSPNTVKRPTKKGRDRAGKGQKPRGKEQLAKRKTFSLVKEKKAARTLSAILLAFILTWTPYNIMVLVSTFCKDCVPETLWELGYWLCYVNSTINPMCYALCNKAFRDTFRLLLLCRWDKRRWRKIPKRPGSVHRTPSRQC
How it was run: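 Agonist activity is the concentration-dependent rise in intracellular calcium (Fluo-4, 1 Hz read) after compound addition, measured before any acetylcholine was added, in stable hM1 CHO-K1 cells. Curves were 11-point, 1:3 dilutions fitted by four-parameter logistic. Emax is given as a fraction of maximal acetylcholine response.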

human mAChR M1 [2] = target: T1, human mAChR M1; assay: mAChR M1 cell-based functional assay (calcium mobilization), PAM mode: increase in the EC20 acetylcholine response
How it was run: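 PAM readout is the concentration-dependent rise in the EC20 acetylcholine calcium signal, fitted to a four-parameter logistic (EC50, Emax). Compounds were preincubated from 4 s before ACh at 144 s (EC20) and 230 s (EC80). hM1-expressing CHO-K1 cells loaded with Fluo-4, FDSS ratio read.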

[3] = relative to the maximum for acetylcholine

Agonist Activity Human M1 EC50 (human mAChR M1 [1])	Emax (human mAChR M1 [1]; [3]) [%]	EC50 (human mAChR M1 [2]) [nM]	Emax (human mAChR M1 [2]) [%]	EC50 (human mAChR M1 [1]) [nM]	Agonist Activity Emax (human mAChR M1 [1]; [3]) [%]	PAM Activity Emax (human mAChR M1 [2]) [%]	SMILES
Inactive	2	411	73	–	–	–	[2H]C1([2H])c2ncccc2C(=O)N1Cc1c(F)cc(-c2ccc(F)c3nn(C([2H])([2H])[2H])cc23)cc1F [Compound 45, 6-(2,6-difluoro-4-(7-fluoro-2-(methyl-d^3)-2H-indazol-4-yl)benzyl)-6,7-dihydro-5H-pyrrolo[3,4-b]pyridin-5-one-7,7-d2]
Inactive	9	681	77	–	–	–	[2H]C1([2H])c2ncccc2C(=O)N1Cc1ccc(-c2cccc3nn(C([2H])([2H])[2H])cc23)cc1C [Compound 46, 6-(2-methyl-4-(2-(methyl-d^3)-2H-indazol-4-yl)benzyl)-6,7-dihydro-5H-pyrrolo[3,4-b]pyridin-5-one-7,7-d2]
Inactive	5	900	76	–	–	–	[2H]C1([2H])c2ncccc2C(=O)N1Cc1ccc(-c2ccc(F)c3nn(C([2H])([2H])[2H])cc23)cc1C [Compound 47, 6-(4-(7-fluoro-2-(methyl-d3)-2H-indazol-4-yl)-2-methylbenzyl)-6,7-dihydro-5H-pyrrolo[3,4-b]pyridin-5-one-7,7-d2]
–	9	488	85	> 10000	–	–	[2H]C1([2H])c2ncccc2C(=O)N1Cc1ccc(-c2ccc(F)c3nn(C)cc23)cc1C [Compound 48, 6-(4-(7-fluoro-2-methyl-2H-indazol-4-yl)-2-methylbenzyl)-6,7-dihydro-5H-pyrrolo[3,4-b]pyridin-5-one-7,7-d2]
Inactive	2	848	80	–	–	–	[2H]C1([2H])c2ncccc2C(=O)N1Cc1c(F)cc(-c2cccc3nn(C4COC4)cc23)cc1F [Compound 49, 6-(2,6-difluoro-4-(2-(oxetan-3-yl)-2H-indazol-4-yl)benzyl)-6,7-dihydro-5H-pyrrolo[3,4-b]pyridin-5-one-7,7-d2]
Inactive	4	332	85	–	–	–	[2H]C1([2H])c2ncccc2C(=O)N1Cc1c(F)cc(-c2cccc3nn(C(F)F)cc23)cc1F [Compound 50, 6-(4-(2-(difluoromethyl)-2H-indazol-4-yl)-2,6-difluorobenzyl)-6,7-dihydro-5H-pyrrolo[3,4-b]pyridin-5-one-7,7-d2]
–	8	173	89	> 10000	–	–	[2H]C1([2H])c2ncccc2C(=O)N1Cc1c(F)cc(-c2ccc(OC)c3nn(C([2H])([2H])[2H])cc23)cc1F [Compound 51, 6-(2,6-difluoro-4-(7-methoxy-2-(methyl-d3)-2H-indazol-4-yl)benzyl)-6,7-dihydro-5H-pyrrolo[3,4-b]pyridin-5-one-7,7-d2]
Inactive	2	317	85	–	–	–	[2H]C1([2H])c2ncccc2C(=O)N1Cc1c(F)cc(-c2ccc(C)c3nn(C([2H])([2H])[2H])cc23)cc1F [Compound 52, 6-(2,6-difluoro-4-(7-methyl-2-(methyl-d3)-2H-indazol-4-yl)benzyl)-6,7-dihydro-5H-pyrrolo[3,4-b]pyridin-5-one-7,7-d2]
–	9	325	84	> 10000	–	–	[2H]C1([2H])c2ncccc2C(=O)N1Cc1ccc(-c2cccc3nn(C([2H])([2H])[2H])cc23)cc1F [Compound 53, 6-(2-fluoro-4-(2-(methyl-d3)-2H-indazol-4-yl)benzyl)-6,7-dihydro-5H-pyrrolo[3,4-b]pyridin-5-one-7,7-d2]
–	5	382	82	> 10000	–	–	[2H]C1([2H])c2ncccc2C(=O)N1Cc1ccc(-c2ccc(F)c3nn(C([2H])([2H])[2H])cc23)cc1F [Compound 54, 6-(2-fluoro-4-(7-fluoro-2-(methyl-d3)-2H-indazol-4-yl)benzyl)-6,7-dihydro-5H-pyrrolo[3,4-b]pyridin-5-one-7,7-d2]
Inactive	7	275	88	–	–	–	[2H]C1([2H])c2ncccc2C(=O)N1Cc1ccc(-c2ccc(OC)c3nn(C([2H])([2H])[2H])cc23)cc1F [Compound 55, 6-(2-fluoro-4-(7-methoxy-2-(methyl-d3)-2H-indazol-4-yl)benzyl)-6,7-dihydro-5H-pyrrolo[3,4-b]pyridin-5-one-7,7-d2]
Inactive	5	317	87	–	–	–	[2H]C1([2H])c2ncccc2C(=O)N1Cc1ccc(-c2ccc(C)c3nn(C([2H])([2H])[2H])cc23)cc1F [Compound 56, 6-(2-fluoro-4-(7-methyl-2-(methyl-d3)-2H-indazol-4-yl)benzyl)-6,7-dihydro-5H-pyrrolo[3,4-b]pyridin-5-one-7,7-d2]
Inactive	4	288	87	–	–	–	[2H]C1([2H])c2ncccc2C(=O)N1Cc1ccc(-c2ccc(OC)c3nn(C([2H])([2H])[2H])cc23)cc1C [Compound 57, 6-(4-(7-methoxy-2-(methyl-d3)-2H-indazol-4-yl)-2-methylbenzyl)-6,7-dihydro-5H-pyrrolo[3,4-b]pyridin-5-one-7,7-d2]
Inactive	4	614	83	–	–	–	[2H]C1([2H])c2ncccc2C(=O)N1Cc1ccc(-c2ccc(C)c3nn(C([2H])([2H])[2H])cc23)cc1C [Compound 58, 6-(2-methyl-4-(7-methyl-2-(methyl-d3)-2H-indazol-4-yl)benzyl)-6,7-dihydro-5H-pyrrolo[3,4-b]pyridin-5-one-7,7-d2]
Inactive	2	222	59	–	–	–	[2H]C1([2H])c2ncccc2C(=O)N1Cc1c(F)cc(-c2cc(F)cc3nn(C)cc23)cc1F [Compound 59, 6-(2,6-difluoro-4-(6-fluoro-2-methyl-2H-indazol-4-yl)benzyl)-6,7-dihydro-5H-pyrrolo[3,4-b]pyridin-5-one-7,7-d2]
Inactive	–	693	–	–	4	34	[2H]C1([2H])c2ncccc2C(=O)N1Cc1c(F)cc(-c2cccc3c2cnn3C(F)F)cc1F [Compound 60, 6-(4-(1-(difluoromethyl)-1H-indazol-4-yl)-2,6-difluorobenzyl)-6,7-dihydro-5H-pyrrolo[3,4-b]pyridin-5-one-7,7-d2]
Inactive	8	1360	68	–	–	–	[2H]C1([2H])c2ncc(Br)cc2C(=O)N1Cc1c(F)cc(-c2cccc3nn(C)cc23)cc1F [Compound 61, 3-Bromo-6-(2,6-difluoro-4-(2-methyl-2H-indazol-4-yl)benzyl)-6,7-dihydro-5H-pyrrolo[3,4-b]pyridin-5-one-7,7-d2]
–	57	108	67	4340	–	–	[2H]C1([2H])c2ncc(O)cc2C(=O)N1Cc1c(F)cc(-c2cccc3nn(C)cc23)cc1F [Compound 62, 6-(2,6-Difluoro-4-(2-methyl-2H-indazol-4-yl)benzyl)-3-hydroxy-6,7-dihydro-5H-pyrrolo[3,4-b]pyridin-5-one-7,7-d2]
Inactive	3	125	89	–	–	–	[2H]C([2H])([2H])Oc1cnc2c(c1)C(=O)N(Cc1c(F)cc(-c3cccc4nn(C)cc34)cc1F)C2([2H])[2H] [Compound 63, 6-(2,6-Difluoro-4-(2-methyl-2H-indazol-4-yl)benzyl)-3-(methoxy-d3)-6,7-dihydro-5H-pyrrolo[3,4-b]pyridin-5-one-7,7-d2]
Inactive	2	1840	79	–	–	–	[2H]C1([2H])c2ncccc2C(=O)N1Cc1c(F)cc(-c2cccc3c2cnn3C(C)C)cc1F [Compound 64, 6-(2,6-difluoro-4-(1-isopropyl-1H-indazol-4-yl)benzyl)-6,7-dihydro-5H-pyrrolo[3,4-b]pyridin-5-one-7,7-d2]
–	2	1300	73	> 10000	–	–	[2H]C1([2H])c2ncccc2C(=O)N1Cc1c(F)cc(-c2cccc3c2cnn3CC)cc1F [Compound 65, 6-(4-(1-ethyl-1H-indazol-4-yl)-2,6-difluorobenzyl)-6,7-dihydro-5H-pyrrolo[3,4-b]pyridin-5-one-7,7-d2]
Inactive	2	2170	74	–	–	–	[2H]C1([2H])c2ncccc2C(=O)N1Cc1c(F)cc(-c2cccc3c2cnn3C2COC2)cc1F [Compound 66, 6-(2,6-difluoro-4-(1-(oxetan-3-yl)-1H-indazol-4-yl)benzyl)-6,7-dihydro-5H-pyrrolo[3,4-b]pyridin-5-one-7,7-d2]
